Test results: the supplement of paper PMC10307832

These cell lines were tested with CN1CCN(CC1)C2=CC(=C(C=C2)NC3=NC=C4C(=N3)N(C5=CC=CC=C5C(=O)N4C)C)OC [XMD8-85] + Cc1nc(NC(=O)N2CCC[C@H]2C(N)=O)sc1-c1ccnc(C(C)(C)C(F)(F)F)c1 [Alpelisib] (partner 2 µM) (assay: relative viability (nuclei count vs DMSO), 5 days (fraction); higher = more cells survive). Details: first compound 8 µM.
In short: (§1)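 Nuclei were stained with Hoechst during a one-step fixation (final 0.05% Triton X-100, 1% formaldehyde, 1 ug/ml Hoechst) carried out 5 days after dosing, then counted on 4× images. The cells, lung cancer lines in 1536-well plates, had been dosed by pin tool the day after seeding with one drug alone or a fixed anchor-drug dose plus five library-drug doses (not always all listed) in √10 steps. Relative viability is the nuclei count in treated wells divided by that in vehicle wells, and each value is the median of duplicate plates.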

Q: How did the relative viability turn out when NCI-H2085 was run?
A: 0.728

Q: With NCI-H2087 as the cell line, how does the relative viability read?
A: 0.808

Q: With NCI-H2126 as the cell line, how does the relative viability read?
A: 0.724

What follows are cell lines tested with O=C(O)C(Cc1ccccc1[N+](=O)[O-])=NNc1nc(-c2ccc(Cl)c(Cl)c2)cs1 (mixture of isomers) [4EGI-1] + CC(=O)Nc1cccc(-n2c(=O)n(C3CC3)c(=O)c3c(Nc4ccc(I)cc4F)n(C)c(=O)c(C)c32)c1 [Trametinib] (partner 0.02 µM) in the same assay as above. Details: first compound 0.5 µM.
In short: as §1

Q: With LK-2 as the cell line, how does the relative viability read?
A: 0.841

Q: How did the relative viability turn out when LOU-NH91 was run?
A: 0.812

Q: With LU99A as the cell line, how does the relative viability read?
A: 0.516

Q: LXF-289 was tested. Which relative viability did it give?
A: 0.716

Q: With NCI-H23 as the cell line, how does the relative viability read?
A: 0.351

Q: With NCI-H322M as the cell line, how does the relative viability read?
A: 0.525

Q: How did the relative viability turn out when NCI-H358 was run?
A: 0.154

Q: How did the relative viability turn out when NCI-H441 was run?
A: 0.613

Q: NCI-H460 was tested. Which relative viability did it give?
A: 0.245

Q: With NCI-H520 as the cell line, how does the relative viability read?
A: 0.947

Q: NCI-H596 was tested. Which relative viability did it give?
A: 1.09

Q: NCI-H647 was tested. Which relative viability did it give?
A: 0.585

Q: NCI-H650 was tested. Which relative viability did it give?
A: 1.07

Q: NCI-H661 was tested. Which relative viability did it give?
A: 0.653

Q: Which relative viability does the source give for NCI-H727 here?
A: 0.365

Q: How did the relative viability turn out when NCI-H838 was run?
A: 0.694

Q: How did the relative viability turn out when NCI-H1355 was run?
A: 0.47

Q: With NCI-H1395 as the cell line, how does the relative viability read?
A: 1.34

Q: With NCI-H1437 as the cell line, how does the relative viability read?
A: 0.608

Q: How did the relative viability turn out when NCI-H1651 was run?
A: 0.914

Q: With NCI-H1666 as the cell line, how does the relative viability read?
A: 0.914

Q: Which relative viability does the source give for NCI-H1734 here?
A: 0.73

Q: NCI-H1755 was tested. Which relative viability did it give?
A: 0.773

Q: NCI-H1793 was tested. Which relative viability did it give?
A: 0.49

Q: For NCI-H1915, which relative viability is on record?
A: 0.367

Q: Which relative viability does the source give for NCI-H1944 here?
A: 0.481

Q: NCI-H1975 was tested. Which relative viability did it give?
A: 0.341

Q: Which relative viability does the source give for NCI-H1993 here?
A: 0.654

Q: With NCI-H2009 as the cell line, how does the relative viability read?
A: 0.339

Q: How did the relative viability turn out when NCI-H2023 was run?
A: 0.865

Q: How did the relative viability turn out when NCI-H2085 was run?
A: 0.553

Q: How did the relative viability turn out when NCI-H2087 was run?
A: 0.212

Q: Which relative viability does the source give for NCI-H2126 here?
A: 0.552

Same assay, conditions: first compound 1.581 µM

Q: LK-2 was tested. Which relative viability did it give?
A: 0.529

Q: Which relative viability does the source give for LU99A here?
A: 0.436

Q: For LXF-289, which relative viability is on record?
A: 0.669

Q: NCI-H358 was tested. Which relative viability did it give?
A: 0.132

Q: How did the relative viability turn out when NCI-H441 was run?
A: 0.471

Q: Which relative viability does the source give for NCI-H460 here?
A: 0.0821

Q: With NCI-H520 as the cell line, how does the relative viability read?
A: 0.83

Q: For NCI-H596, which relative viability is on record?
A: 0.83

Q: For NCI-H647, which relative viability is on record?
A: 0.493

Q: NCI-H661 was tested. Which relative viability did it give?
A: 0.524

Q: Which relative viability does the source give for NCI-H727 here?
A: 0.398

Q: NCI-H838 was tested. Which relative viability did it give?
A: 0.483

Q: For NCI-H1355, which relative viability is on record?
A: 0.428

Q: With NCI-H1437 as the cell line, how does the relative viability read?
A: 0.537

Q: For NCI-H1651, which relative viability is on record?
A: 0.775

Q: With NCI-H1666 as the cell line, how does the relative viability read?
A: 0.822

Q: For NCI-H1734, which relative viability is on record?
A: 0.521

Q: How did the relative viability turn out when NCI-H1755 was run?
A: 0.802

Q: Which relative viability does the source give for NCI-H1793 here?
A: 0.431

Q: Which relative viability does the source give for NCI-H1915 here?
A: 0.234

Q: How did the relative viability turn out when NCI-H1975 was run?
A: 0.32

Q: For NCI-H1993, which relative viability is on record?
A: 0.49

Q: NCI-H2009 was tested. Which relative viability did it give?
A: 0.28

Q: Which relative viability does the source give for NCI-H2085 here?
A: 0.594

Q: With NCI-H2087 as the cell line, how does the relative viability read?
A: 0.2

Q: Which relative viability does the source give for NCI-H2126 here?
A: 0.553

Same assay, conditions: first compound 5 µM

Q: With LK-2 as the cell line, how does the relative viability read?
A: 0.944

Q: Which relative viability does the source give for LOU-NH91 here?
A: 0.764

Q: How did the relative viability turn out when LU99A was run?
A: 0.583

Q: Which relative viability does the source give for LXF-289 here?
A: 0.61

Q: NCI-H23 was tested. Which relative viability did it give?
A: 0.422

Q: With NCI-H322M as the cell line, how does the relative viability read?
A: 0.476

Q: How did the relative viability turn out when NCI-H358 was run?
A: 0.151

Q: Which relative viability does the source give for NCI-H441 here?
A: 0.449

Q: With NCI-H460 as the cell line, how does the relative viability read?
A: 0.109

Q: For NCI-H520, which relative viability is on record?
A: 0.749

Q: For NCI-H596, which relative viability is on record?
A: 0.918

Q: NCI-H647 was tested. Which relative viability did it give?
A: 0.475

Q: For NCI-H650, which relative viability is on record?
A: 1.02

Q: For NCI-H661, which relative viability is on record?
A: 0.572

Q: NCI-H727 was tested. Which relative viability did it give?
A: 0.377

Q: NCI-H838 was tested. Which relative viability did it give?
A: 0.512

Q: With NCI-H1355 as the cell line, how does the relative viability read?
A: 0.372

Q: With NCI-H1395 as the cell line, how does the relative viability read?
A: 1.06

Q: NCI-H1437 was tested. Which relative viability did it give?
A: 0.549

Q: Which relative viability does the source give for NCI-H1651 here?
A: 0.863

Q: For NCI-H1666, which relative viability is on record?
A: 0.811

Q: For NCI-H1734, which relative viability is on record?
A: 0.684

Q: Which relative viability does the source give for NCI-H1755 here?
A: 0.711

Q: How did the relative viability turn out when NCI-H1793 was run?
A: 0.414

Q: With NCI-H1915 as the cell line, how does the relative viability read?
A: 0.308

Q: For NCI-H1944, which relative viability is on record?
A: 0.354

Q: Which relative viability does the source give for NCI-H1975 here?
A: 0.325

Q: Which relative viability does the source give for NCI-H1993 here?
A: 0.504

Q: For NCI-H2009, which relative viability is on record?
A: 0.306

Q: Which relative viability does the source give for NCI-H2023 here?
A: 0.593

Q: NCI-H2085 was tested. Which relative viability did it give?
A: 0.53

Q: NCI-H2087 was tested. Which relative viability did it give?
A: 0.234

Q: Which relative viability does the source give for NCI-H2126 here?
A: 0.506

Same assay, conditions: first compound 15.81 µM

Q: LK-2 was tested. Which relative viability did it give?
A: 0.75

Q: Which relative viability does the source give for LOU-NH91 here?
A: 0.704

Q: For LU99A, which relative viability is on record?
A: 0.538

Q: LXF-289 was tested. Which relative viability did it give?
A: 0.622

Q: For NCI-H23, which relative viability is on record?
A: 0.369

Q: With NCI-H322M as the cell line, how does the relative viability read?
A: 0.514

Q: How did the relative viability turn out when NCI-H358 was run?
A: 0.114

Q: How did the relative viability turn out when NCI-H441 was run?
A: 0.428

Q: With NCI-H460 as the cell line, how does the relative viability read?
A: 0.133

Q: NCI-H520 was tested. Which relative viability did it give?
A: 0.724

Q: How did the relative viability turn out when NCI-H596 was run?
A: 0.661

Q: Which relative viability does the source give for NCI-H647 here?
A: 0.384

Q: With NCI-H650 as the cell line, how does the relative viability read?
A: 0.984

Q: For NCI-H661, which relative viability is on record?
A: 0.439

Q: NCI-H727 was tested. Which relative viability did it give?
A: 0.386

Q: How did the relative viability turn out when NCI-H838 was run?
A: 0.506

Q: With NCI-H1355 as the cell line, how does the relative viability read?
A: 0.319

Q: For NCI-H1395, which relative viability is on record?
A: 1.1

Q: With NCI-H1437 as the cell line, how does the relative viability read?
A: 0.337

Q: With NCI-H1651 as the cell line, how does the relative viability read?
A: 0.796

Q: How did the relative viability turn out when NCI-H1666 was run?
A: 0.774

Q: With NCI-H1734 as the cell line, how does the relative viability read?
A: 0.761

Q: Which relative viability does the source give for NCI-H1755 here?
A: 0.72

Q: Which relative viability does the source give for NCI-H1793 here?
A: 0.407

Q: Which relative viability does the source give for NCI-H1915 here?
A: 0.289

Q: How did the relative viability turn out when NCI-H1944 was run?
A: 0.314

Q: How did the relative viability turn out when NCI-H1975 was run?
A: 0.289

Q: Which relative viability does the source give for NCI-H1993 here?
A: 0.607

Q: For NCI-H2009, which relative viability is on record?
A: 0.24

Q: For NCI-H2023, which relative viability is on record?
A: 0.214

Q: Which relative viability does the source give for NCI-H2085 here?
A: 0.355

Q: Which relative viability does the source give for NCI-H2087 here?
A: 0.2

Q: With NCI-H2126 as the cell line, how does the relative viability read?
A: 0.463

Same assay, conditions: first compound 50 µM

Q: With LK-2 as the cell line, how does the relative viability read?
A: 0.609

Q: For LOU-NH91, which relative viability is on record?
A: 0.724

Q: LU99A was tested. Which relative viability did it give?
A: 0.307

Q: For LXF-289, which relative viability is on record?
A: 0.583

Q: With NCI-H23 as the cell line, how does the relative viability read?
A: 0.187

Q: How did the relative viability turn out when NCI-H322M was run?
A: 0.452

Q: How did the relative viability turn out when NCI-H358 was run?
A: 0.123

Q: NCI-H441 was tested. Which relative viability did it give?
A: 0.127

Q: For NCI-H460, which relative viability is on record?
A: 0.018

Q: For NCI-H520, which relative viability is on record?
A: 0.145

Q: How did the relative viability turn out when NCI-H596 was run?
A: 0.545

Q: How did the relative viability turn out when NCI-H647 was run?
A: 0.129

Q: Which relative viability does the source give for NCI-H650 here?
A: 0.833

Q: NCI-H661 was tested. Which relative viability did it give?
A: 0.29

Q: NCI-H727 was tested. Which relative viability did it give?
A: 0.376

Q: For NCI-H838, which relative viability is on record?
A: 0.141

Q: NCI-H1355 was tested. Which relative viability did it give?
A: 0.33

Q: For NCI-H1395, which relative viability is on record?
A: 0.7

Q: How did the relative viability turn out when NCI-H1437 was run?
A: 0.207

Q: Which relative viability does the source give for NCI-H1651 here?
A: 0.831

Q: Which relative viability does the source give for NCI-H1666 here?
A: 0.66

Q: NCI-H1734 was tested. Which relative viability did it give?
A: 0.483

Q: How did the relative viability turn out when NCI-H1755 was run?
A: 0.556

Q: For NCI-H1793, which relative viability is on record?
A: 0.273

Q: Which relative viability does the source give for NCI-H1915 here?
A: 0.245

Q: With NCI-H1944 as the cell line, how does the relative viability read?
A: 0.334

Q: For NCI-H1975, which relative viability is on record?
A: 0.212

Q: Which relative viability does the source give for NCI-H1993 here?
A: 0.432

Q: How did the relative viability turn out when NCI-H2009 was run?
A: 0.139
